Measured values reported in patent publication US11192902B1, “Heterocyclic diazenyl pyridinone copper(II) complexes as pharmacological antitumor agents” (King Abdulaziz University, priority 2020, dated 2021).

Key:
[1] = tested on: human primary hepatocytes THLE-2 (normal cell line); assay: Cytotoxic activity test on normal cell line THLE-2 (MTT assay); assay type: cell-based
Protocol: The samples were tested against the human primary hepatocytes THLE-2 (normal cell line, ATCC). Cells were maintained at sub-confluency at 37° C. in humidified air containing 5% CO2. The samples' concentrations ranged between (100 to 0.78 μg/ml) and the MTT assay was used to assess cell death.

[2] = tested on: MCF-7 human breast adenocarcinoma cells; assay: Cytotoxicity against MCF-7 human breast adenocarcinoma cells (MTT); assay type: cell-based; settings: MCF-7 cells, 48 hrs

CCCCCCn1c([O-])c(N=Nc2ccc(C)cc2)c(C)c(C#N)c1=O.CCCCCCn1c([O-])c(N=Nc2ccc(C)cc2)c(C)c(C#N)c1=O.[Cu+2] [D4]
Mean IC50, THLE-2 human normal hepatocytes ([1]; THLE-2 cells, 48 hrs, MTT, 100 to 0.78 μg/ml, mean): 169.76 μg/mL
effect on the normal cell line (safety) ([1]; THLE-2 normal cell line, at the high concentration of 100 ppm): safe
Mean IC50, MCF-7 human breast adenocarcinoma cells [2]: 83.72 µg/mL
